Test results taken from patent US20260306633A1, “A COMBINATION THERAPY FOR CANCER TREATMENT” (Purdue Research Foundation, priority 2023, published 2026).
Several values for one entry are separate records, joined by “and”; a condition that tells them apart may be missing. Equal values may be shown once. Entries after “also recorded” stand apart in the source; their conditions may differ.

How the values were obtained:
TNBC cells [1] = assay: Combination index (CI) of binary therapy, Chou-Talalay method, CompuSyn software; type: cell-based, human
Experimental: (§1) The calculated CI values are based on 50 nM concentration for the PSs, 50 nM paclitaxel, 500 nM doxorubicin, 25 μM cisplatin, 25 μM fluorouracil, and 500 nM methotrexate.
(§2) Cells were grown to confluence in a 96-well plate (9×10^3 cells/well) and co-treated for 24 hours with synthesized photosensitizers (PSs) and chemotherapeutic agents of varying concentrations ranging from 5 nM to 50 μM) in growth media from a stock solution of 10 mM in DMSO (dimethyl sulfoxide, Fisher). After 24-hour treatment, old growth media containing the PSs or compounds were aspirated out and replaced with fresh media. Plates were then positioned below a non-coherent LumaCare LC-122 650 nm light source for 1 minute at an energy fluence rate of 0.96 J/cm^2 and a power of 16 mW/cm^2 (measured using a Newport optical power meter Model 840). Unirradiated cells served as control samples. The following day, cells were washed with pre-warmed PBS, and 11MTT (3-[4,5-dimethyl-thiazol-2-yl]-2.5-diphenyltetrazolium bromide, Sigma, 0.3 mg/mL) in PBS was added to each well. Samples were allowed to incubate for additional 2 hours, after which dark blue crystals formed. DMSO was added to each well and plates were shaken at room temperature for 1 hour to dissolve the purplish-blue formazan crystals. Absorbance values at 570 nm were measured on a microplate reader (BioRad 550). Cell survival was calculated based on the absorbance of the untreated cells alone (as control) and were directly proportional to the number of viable cells in culture. Results were reported as the mean±SD of triplicate measurements.
The combination index (CI) for the binary treatment of TNBC cells with a PS and a chemotherapeutic drug was calculated based on the Chou-Talalay method using CompuSyn software. […] The unified dynamics algorithm uses a minimum of dose-data points to fit the general MAL theory.
as §1

TNBC BT-549 cells = assay: Cell survival / cell inhibition (MTT cell cytotoxicity assay) after 24 h treatment with photosensitizer and/or chemotherapeutic agent, dark or light-irradiated; type: cell-based, human
Experimental: Human mammary epithelial carcinoma cell lines purchased from the American Type Culture Collection BT-549 (ATCC HTB-122) were cultured according to ATCC protocol. BT-549 cells were grown in RPMI 1640 containing 0.023 IU/mL insulin and supplemented with 10% fetal bovine serum (FBS). Cells were grown to 80-90% confluence in 75-cm^2 culture flasks (Corning) for 4-5 days in a humidified incubator (Fisher Scientific Isotemp) with 5% CO2 at 37° C. During the incubation period, growth media was changed once with fresh pre-warmed media (pH 7.2). To harvest the cells, old growth media was aspirated out, and 3 mL 0.25% trypsin solution (Thermo Sci Hyclone) were added. The cells were incubated for 5 minutes, and the cell pellet after centrifugation was resuspended in 3 mL media, broken up gently, then 1 mL of suspended cells was transferred into a new T75 cell culture flask containing pre-warmed media (20 mL) for further culturing.
as §2
The unmetallated PS and the indium complexes were used.
Light dose corresponds to an energy fluence rate of 0.96 J/cm^2 used.
Power of 16 mW/cm^2 used.
Cell inhibition in TNBC cells is based on the cell survival (MTT) assay of the binary therapy, blending the effect of PDT and chemotherapeutic agents. […] MePheo serves as a control compound. TNBC cells were then exposed to light after binary treatment for 24 hours.

TNBC cells [2] = assay: Combination index (CI) of binary therapy, Chou-Talalay method, CompuSyn software; type: cell-based, human; settings: PS 50 nM + methotrexate 500 μM (footnote 500 nM)
human TNBC BT-549 cells = assay: Fluorescence microscopy (Hoechst 33258) of cell morphology / cell death pathway; type: cell-based
Experimental: Grayscale images of cells stained with Hoechst 33258. Morphology of (A) untreated unirradiated cells, sham control; (B) illuminated cells; (C-E) cells treated with: PSs (InCLA, CBTN, and CPA) and paclitaxel in the dark; (F-H) PSs, followed by 1 minute light exposure; (I) paclitaxel unirradiated; (J-L) PSs and paclitaxel in the dark; (M-O) PSs co-treated with paclitaxel, then light-exposed; (P-Q) PSs co-treated with doxorubicin, then irradiated; (R) PSs and cisplatin, dark; (S-T) PSs and cisplatin, irradiated; (U) fluorouracil, dark; (V) InCLA with fluorouracil in the dark; (W) light-exposed and, (X-Y) PSs with methotrexate with light. Inserts indicate enlarged view. […] Light dose in 1 minute=0.96 J cm^−2; in 30 seconds=0.48 J cm^−2. Concentrations: PSs=50 nM; paclitaxel=50 nM; doxorubicin=500 nM; cisplatin=25 μM; fluororuracil=25 μM; and, methotrexate=500 nM.
Cells (1 mL aliquots) obtained from a diluted cell suspension were seeded into each well (1.7 cm^2, 8×10^3 cells/well) of a 4-well culture slide (BD Biosciences) and grown to confluence in 5% CO2 at 37° C. for 3-4 days for attachment to the substratum. After aspirating the old growth media, 1 mL of the photosensitizer and chemotherapeutic agents (with appropriate concentrations) in fresh pre-warmed media at 37° C. was added to each well. After compound treatment for 24 hours, cells were washed twice with 1 mL fresh growth media, and then irradiated with light using LumaCare LC-122 as described above. Cells were stained in the dark with Hoechst 33258 (Molecular Probes) in pre-warmed media for 10 minutes at 37° C., washed twice with filtered PBS, then fixed with filtered paraformaldehyde for 15 minutes in the incubator. After thorough liquid aspiration, the wells were removed and allowed to air dry in the dark for 1 hour. Slides were protected with coverslips, whose edges were sealed using clear fast-drying nail polish and allowed to dry at room temperature in the dark for 30 minutes. Images were recorded using fluorescence microscopy (DAPI for Hoechst 350-390 nm excitation and 460-490 nm emission filters) using an upright fluorescence microscope with Retiga imaging 2000R (Nikon Optiphot-2, 20× and 40×) and an image processing Nikon NIS-Elements V4.0 Qimaging software.
To determine the preferred cell death pathway for the binary chemophotodynamic therapy, tracking the hallmarks of apoptosis or necrosis was accomplished using a nuclear stain to monitor chromatin condensation and cellular contraction. TNBC cells are spindle-shaped and nearly round with intact cytoplasm, diffused chromatin, distinct cellular membrane, and large oval nuclei staining dark blue with the nuclear stain (FIG. 18A-B).

[3] = PS 100 nM + fluorouracil 25 μM, light

SMILES: C=Cc1c(C)c2cc3nc(c(CC(=O)OC)c4[nH]c(cc5nc(cc1[nH]2)C(C)=C5CC)c(C)c4C(=O)NCCCCCCNC(=O)CCCCC1SCC2NC(=O)NC21)C(CCC(=O)OC)C3C (stereo not shown) [CBTN, chlorin biotin conjugate]
- combination index (CI) with cisplatin (TNBC cells [1]; PS 50 nM + cisplatin 25 μM): 0.99
- synergism vs additive vs antagonism effect with cisplatin (TNBC cells [1]; PS 50 nM + cisplatin 25 μM): (NA) (NA (0.9-1.10), nearly additive)
- combination index (CI) with doxorubicin (TNBC cells [1]; PS 50 nM + doxorubicin 500 nM): 2.44
- synergism vs additive vs antagonism effect with doxorubicin (TNBC cells [1]; PS 50 nM + doxorubicin 500 nM): (A) (A (1.45-3.3), antagonism)
- ranking of combination partners based on CI, decreasing order (TNBC cells [1]; PS 50 nM + drug): fluorouracil>paclitaxel>cisplatin
- combination index (CI) with fluorouracil (TNBC cells [1]; PS 50 nM + fluorouracil 25 μM): 0.48
- synergism vs additive vs antagonism effect with fluorouracil (TNBC cells [1]; PS 50 nM + fluorouracil 25 μM): (S) (S (0.3-0.7), synergism)
- combination index (CI) with paclitaxel (TNBC cells [1]; PS 50 nM + paclitaxel 50 nM): 0.74
- synergism vs additive vs antagonism effect with paclitaxel (TNBC cells [1]; PS 50 nM + paclitaxel 50 nM): (MS) (MS (0.7-0.85), moderate synergism)
- cell inhibition (%), combination with cisplatin (TNBC BT-549 cells; PS 100 nM + cisplatin 25 μM, 24 h, light 0.96 J cm−2): 53%
- effect of added cisplatin compared to cisplatin-treated cell viability (TNBC BT-549 cells; PS 100 nM + cisplatin 25 μM, light): reduced cell survival
- cell survival, co-treatment with doxorubicin in the dark (TNBC BT-549 cells; PS 100 nM + doxorubicin 500 nM, 24 h, dark): 51%
- cell inhibition (%), combination with doxorubicin (TNBC BT-549 cells; PS 100 nM + doxorubicin 500 nM, 24 h, light 0.96 J cm−2): 64%
- cell survival, co-treatment with doxorubicin upon light (TNBC BT-549 cells; PS 100 nM + doxorubicin 500 nM, light, 1440 min, 0.1 µM): 35% and 36%
- best combination partner (TNBC BT-549 cells; PS 100 nM + drug, light): with paclitaxel followed by doxorubicin or fluorouracil; also recorded: with paclitaxel, followed by doxorubicin or fluorouracil
- cell inhibition (%), combination with fluorouracil (TNBC BT-549 cells; PS 100 nM + fluorouracil 25 μM, 24 h, light 0.96 J cm−2): 64%
- cell viability reduction (difference) vs PS alone (TNBC BT-549 cells; [3]): 46%
- effect of added fluorouracil compared to fluorouracil-treated cell viability (TNBC BT-549 cells; [3]): reduced cell survival
- cell survival, co-treatment with fluorouracil upon light (TNBC BT-549 cells; PS 100 nM + fluorouracil 25 μM, light, 1440 min): 36%
- cell survival, co-treatment with methotrexate in the dark (TNBC BT-549 cells; PS 100 nM + methotrexate 500 nM, 24 h, dark): 85%
- cell inhibition (%), combination with methotrexate (TNBC BT-549 cells; PS 100 nM + methotrexate 500 nM, 24 h, light 0.96 J cm−2): 42%
- cell inhibition (%), combination with paclitaxel (TNBC BT-549 cells; PS 100 nM + paclitaxel 50 nM, 24 h, light 0.96 J cm−2): 65%
- cell survival, co-treatment with paclitaxel upon light (TNBC BT-549 cells; PS 100 nM + paclitaxel 50 nM, light, 1440 min): 35%
- chemophotodynamic potency against TNBC cells, summary (TNBC BT-549 cells; PS 100 nM alone or in combination, light): better activity against TNBC cells than the starting compound MePheo
- cell survival, PS alone (TNBC BT-549 cells; PS 100 nM, light 0.96 J/cm^2, 1440 min, 0.1 µM): 82% and 81%
- cytotoxicity in the absence of light, PS alone (TNBC BT-549 cells; PS 500 nM, dark): No cytotoxicity
- combination therapy vs monotherapy (doxorubicin) (TNBC BT-549 cells; PS + doxorubicin, light): better photodynamic effect when co-treated with doxorubicin than PS-treatment alone
- combination therapy vs monotherapy (fluorouracil) (TNBC BT-549 cells; PS + fluorouracil, light): best compared to monotherapy alone and with the other PSs used
- cell viability reduction (difference) vs PS alone (TNBC BT-549 cells; PS at lower concentration (CPA: 50 nM) + methotrexate 500 nM, light): 10%
- combination index (CI) with methotrexate (TNBC cells [2]): 1.57
- synergism vs additive vs antagonism effect with methotrexate (TNBC cells [2]): (A) (A (1.45-3.3), antagonism)
- cell morphology, PS co-treated with cisplatin, light (human TNBC BT-549 cells; PS 50 nM + cisplatin 25 μM, light 0.48 J/cm^2 (FIG. 18S-T)): a significant number of shrunk cells and chromatin condensation can be seen
- cell morphology, PS co-treated with doxorubicin (human TNBC BT-549 cells; PS 50 nM + doxorubicin 500 nM, irradiated): No significant difference
- cell morphology, PS co-treated with methotrexate, light (human TNBC BT-549 cells; PS 50 nM + methotrexate 500 nM, light (FIG. 18X-Y)): Very few cells exhibit chromatin condensation
- cell morphology, PS co-treated with paclitaxel (human TNBC BT-549 cells; PS 50 nM + paclitaxel 50 nM, light (FIG. 18M-O)): shrunk cells and chromatin fragmentation are evident
- cell morphology, PS-treated then light (human TNBC BT-549 cells; PS 50 nM, 24 h, light (FIG. 18F-H)): not as obvious
- preferred mode of cell death (human TNBC BT-549 cells; PS co-treated with paclitaxel or cisplatin): apoptosis
